From patent publication US8999994B2, “Derivatives of propargylamine having neuroprotective capacity for the treatment of Alzheimer's and Parkinson's diseases” (Consejo Superior de Investigaciones Cientificas, priority 2010, dated 2015) come the findings set out here.

One may read the IC50 as the concentration at which inhibition is half-maximal.

Holding throughout (type): biochemical
In one assay the target is MAO-A (Rattus norvegicus (Rat), UniProt P21396). Nature of the assay: Inhibition of monoamine oxidase A (Fowler and Tipton radiometric method, rat liver mitochondria).
MAO-A, sequence (P21396 whole entry): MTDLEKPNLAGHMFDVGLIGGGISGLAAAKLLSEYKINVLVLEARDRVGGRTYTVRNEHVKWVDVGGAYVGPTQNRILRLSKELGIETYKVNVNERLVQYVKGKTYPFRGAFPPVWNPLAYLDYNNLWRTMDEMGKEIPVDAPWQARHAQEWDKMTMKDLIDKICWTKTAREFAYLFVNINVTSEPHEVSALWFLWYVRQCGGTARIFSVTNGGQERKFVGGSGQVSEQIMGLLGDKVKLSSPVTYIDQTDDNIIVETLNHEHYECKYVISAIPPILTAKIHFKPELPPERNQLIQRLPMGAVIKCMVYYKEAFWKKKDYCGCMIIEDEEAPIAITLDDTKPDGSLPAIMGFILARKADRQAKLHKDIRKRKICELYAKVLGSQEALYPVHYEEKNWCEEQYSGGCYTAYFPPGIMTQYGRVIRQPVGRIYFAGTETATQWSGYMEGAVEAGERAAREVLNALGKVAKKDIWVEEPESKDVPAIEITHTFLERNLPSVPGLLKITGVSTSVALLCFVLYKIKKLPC
The target in a further assay is AChE (electric eel) (Electrophorus electricus (Electric eel) (Gymnotus electricus), UniProt O42275). To be noted: acetylthiocholine iodide […], 10 min incubation, mean ± SEM, read-out: IC50 (μM) ChE EeAChE.
AChE (electric eel), sequence (O42275 whole entry, looked up): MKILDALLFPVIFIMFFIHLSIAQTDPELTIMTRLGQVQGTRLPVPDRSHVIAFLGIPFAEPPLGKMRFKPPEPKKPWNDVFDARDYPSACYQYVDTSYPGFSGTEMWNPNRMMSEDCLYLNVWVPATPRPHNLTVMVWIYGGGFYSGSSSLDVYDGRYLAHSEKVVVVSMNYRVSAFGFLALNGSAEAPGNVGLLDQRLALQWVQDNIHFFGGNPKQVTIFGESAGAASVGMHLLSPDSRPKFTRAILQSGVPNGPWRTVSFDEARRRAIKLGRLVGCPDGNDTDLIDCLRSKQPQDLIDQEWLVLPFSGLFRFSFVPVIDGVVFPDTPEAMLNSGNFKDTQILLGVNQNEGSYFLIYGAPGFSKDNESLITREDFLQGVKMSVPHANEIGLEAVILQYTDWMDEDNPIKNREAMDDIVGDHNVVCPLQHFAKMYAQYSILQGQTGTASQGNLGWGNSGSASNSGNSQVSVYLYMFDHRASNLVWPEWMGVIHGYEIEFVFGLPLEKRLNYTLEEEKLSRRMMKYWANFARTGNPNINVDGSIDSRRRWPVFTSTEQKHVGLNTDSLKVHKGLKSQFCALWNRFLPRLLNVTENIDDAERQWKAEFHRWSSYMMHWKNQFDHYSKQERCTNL
The next assay deals with MAO-B (Rattus norvegicus (Rat), UniProt P19643). Nature of the assay: Inhibition of monoamine oxidase B (Fowler and Tipton radiometric method, rat liver mitochondria).
MAO-B, sequence (P19643 whole entry): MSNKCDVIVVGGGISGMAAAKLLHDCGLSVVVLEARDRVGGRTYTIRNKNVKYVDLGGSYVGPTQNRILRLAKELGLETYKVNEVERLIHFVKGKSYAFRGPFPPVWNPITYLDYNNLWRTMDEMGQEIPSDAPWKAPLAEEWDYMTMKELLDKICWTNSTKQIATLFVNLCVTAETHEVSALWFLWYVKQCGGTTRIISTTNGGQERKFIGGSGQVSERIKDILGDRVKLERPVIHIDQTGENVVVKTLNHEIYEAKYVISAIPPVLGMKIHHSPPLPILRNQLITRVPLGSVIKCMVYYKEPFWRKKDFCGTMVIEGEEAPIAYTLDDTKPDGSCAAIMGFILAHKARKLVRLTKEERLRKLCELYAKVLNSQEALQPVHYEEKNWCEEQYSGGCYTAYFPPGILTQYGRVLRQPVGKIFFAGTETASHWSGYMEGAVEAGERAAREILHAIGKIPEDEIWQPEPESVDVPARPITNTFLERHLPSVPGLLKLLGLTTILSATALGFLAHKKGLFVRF
The mark [1] stands for this setting: rat liver mitochondria, [14C]-5-HT 100 μM substrate, 30 min incubation, mean ± SEM, read-out: IC50 (μM) MAO MAO-A.
[2] abbreviates: rat liver mitochondria, [14C]-phenylethylamine 20 μM substrate, 30 min incubation, mean ± SEM.

Like-named read-outs stand apart in the source and are kept apart here.

As to `C#CCN(C)Cc1cc2cc(OCCC3CCN(Cc4ccccc4)CC3)ccc2n1C` [Compound 5, N-((5-(2-(1-benzylpiperidin-4-yl)ethoxy)-1-methyl-1H-indol-2-yl)methyl)-N-methylprop-2-yn-1-amine], the IC50 at MAO-A (setting [1]) is 0.0067 ± 0.0018 µM; on AChE (electric eel), 0.42 ± 0.04 µM; against MAO-B, 0.13 ± 0.0414 µM.
As for `Nc1c2c(nc3ccccc13)CCCC2` [Tacrine, tacrine, reference compound], the “IC50 (μM) MAO MAO-B” value on MAO-B amounted to 499.6 ± 12.8 µM.
Turning to `C#CCN(C)Cc1cc2cc(OCC3CCN(Cc4ccccc4)CC3)ccc2n1C` [Compound 4, N-{(5-((1-benzylpiperidin-4-yl)methoxy)-1-methyl-1H-indol-2-yl)methyl}-N-methylprop-2-yn-1-amine], the IC50 at MAO-A (setting [1]) was 0.0822 ± 0.0032 µM; on AChE (electric eel), 0.31 ± 0.04 µM; at MAO-B, 0.745 ± 0.0199 µM.
Take `C#CCN(C)Cc1cc2cc(OCCCN3CCN(Cc4ccccc4)CC3)ccc2n1C` [Compound 3, N-{(5-[3-(4-benzylpiperazin-1-yl)propoxy)-1-methyl-1H-indol-2-yl]methyl}-N-methylprop-2-yn-1-amine]: the 50% inhibitory concentration (IC50) on MAO-A is 0.0305 ± 0.0135 µM; on AChE (electric eel), greater than 100 µM; at MAO-B (setting [2]), 1.64 ± 0.707 µM.
For the compound `C#CCN(C)Cc1cc2cc(OCCN3CCC(Cc4ccccc4)CC3)ccc2n1C` [Compound 1, N-{(5-[2-(4-benzylpiperidin-1-yl)ethoxy)-1-methyl-1H-indol-2-yl]methyl}-N-methylprop-2-yn-1-amine], the values for the IC50 at MAO-A (setting [1]), at AChE (electric eel) and at MAO-B (setting [2]) were 0.143 ± 0.0443 µM, greater than 100 µM and 1.46 ± 0.499 µM, respectively.
Regarding `C#CCN(C)Cc1cc2cc(OCCCN3CCC(Cc4ccccc4)CC3)ccc2n1C` [Compound 2, N-{(5-[3-(4-benzylpiperidin-1-yl)propoxy)-1-methyl-1H-indol-2-yl]methyl}-N-methylprop-2-yn-1-amine], the figures for the half-maximal inhibitory concentration (IC50) at MAO-A (read-out: IC50 (μM) MAO MAO-A), at AChE (electric eel) and at MAO-B (setting [2]) were 0.0654 ± 0.0174 µM, 18.1 ± 0.4 µM and 11.3 ± 2.38 µM, respectively.
For the compound `C#CCN(C)Cc1cc2cc(OCCCC3CCN(Cc4ccccc4)CC3)ccc2n1C` [Compound 6, N-((5-[3-(1-benzylpiperidin-4-yl)propoxy)-1-methyl-1H-indol-2-yl)methyl)-N-methylprop-2-yn-1-amine], the IC50 on MAO-A (setting [1]) is 0.0052 ± 0.0011 µM; against MAO-B (setting [2]), 0.0431 ± 0.0079 µM.
As to `C#CCN(C)Cc1cc2cc(OCCCCC3CCN(Cc4ccccc4)CC3)ccc2n1C` [Compound 7, N-((5-[4-(1-benzylpiperidin-4-yl)butoxy)-1-methyl-1H-indol-2-yl)methyl)-N-methylprop-2-yn-1-amine], the IC50 was found to be 0.0105 ± 0.0044 µM at MAO-A (setting [1]), 0.26 ± 0.07 µM on AChE (electric eel) and 2.77 ± 0.116 µM against MAO-B (setting [2]).
